Experimental data: ChEMBL document CHEMBL1201862, “PubChem BioAssay data set” (2004)
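A five-concentration, 48-hour dose response in 96-well plates underlies each endpoint, interpolated linearly between surrounding concentrations. GI50: concentration for 50% inhibition of growth.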 The source made the active and inactive calls. Cut-off read from the data, not from the text of the source: active = GI50 up to about 1.1 µM and inactive = higher.

What was measured:
Assay in all cases: DTP human tumour cell line panel, 48 h
786-0 = system: 786-0
A498 = system: A498
A549 = system: A549
ACHN = system: ACHN
COLO 205 = system: COLO 205
DMS-114 = system: DMS-114
HCT-15 = system: HCT-15
HOP-62 = system: HOP-62
KM12 = system: KM12
LOX IMVI = system: LOX IMVI
M14 = system: M14
Malme-3M = system: Malme-3M
NCI-H226 = system: NCI-H226
NCI-H23 = system: NCI-H23
NCI-H522 = system: NCI-H522
SF-268 = system: SF-268
SK-OV-3 = system: SK-OV-3
UACC-62 = system: UACC-62
HOP-92 = system: HOP-92

SMILES	GI50 (786-0)	GI50 (A498)	GI50 (A549)	GI50 (ACHN)	GI50 (COLO 205)	GI50 (DMS-114)	GI50 (HCT-15)	GI50 (HOP-62)	GI50 (KM12)	GI50 (LOX IMVI)	GI50 (M14)	GI50 (Malme-3M)	GI50 (NCI-H226)	GI50 (NCI-H23)	GI50 (NCI-H522)	GI50 (SF-268)	GI50 (SK-OV-3)	GI50 (UACC-62)	GI50 (HOP-92)
COc1ccc(-c2c(N)[n+]([O-])c3cc(C)c(C)cc3[n+]2[O-])cc1OC	> 100 µM (inactive)	> 100 µM (inactive)	> 100 µM (inactive)	> 100 µM (inactive)	22.3 µM (inactive)	25.5 µM (inactive)	48.6 µM	> 100 µM (inactive)	> 100 µM (inactive)	> 100 µM (inactive)	55.6 µM (inactive)	> 100 µM (inactive)	> 100 µM (inactive)	34 µM (inactive)	17.5 µM (inactive)	43.8 µM (inactive)	> 100 µM (inactive)	41.4 µM (inactive)	
CNS(=O)(=O)NN(C)S(=O)(=O)c1ccccc1	> 100 µM (inactive)	> 100 µM (inactive)	> 100 µM (inactive)	> 100 µM (inactive)	> 100 µM (inactive)	> 100 µM (inactive)	> 100 µM	> 100 µM (inactive)	> 100 µM (inactive)	> 100 µM (inactive)	> 100 µM (inactive)	> 100 µM (inactive)	> 100 µM (inactive)	> 100 µM (inactive)	> 100 µM (inactive)	> 100 µM (inactive)		> 100 µM (inactive)	
COC(=O)C12CC(C3CC31)C1CC12 (stereo unspecified)	> 100 µM (inactive)	> 100 µM (inactive)	> 100 µM (inactive)	> 100 µM (inactive)	> 100 µM (inactive)	> 100 µM (inactive)	> 100 µM	> 100 µM (inactive)		> 100 µM (inactive)	> 100 µM (inactive)	> 100 µM (inactive)	> 100 µM (inactive)	> 100 µM (inactive)		> 100 µM (inactive)	> 100 µM (inactive)	> 100 µM (inactive)	59 µM (inactive)
C#C[C@]1(O)CCC2C3CCc4cc(Oc5nc(F)nc(-n6c(C)nc7cc8ccccc8cc76)n5)ccc4C3CCC21C (stereo partly specified)	57 µM (inactive)		41.5 µM (inactive)	61.4 µM (inactive)	20.6 µM (inactive)	20.6 µM (inactive)		35.7 µM (inactive)	32.7 µM (inactive)	40.1 µM (inactive)	43.8 µM (inactive)	47.3 µM (inactive)	47.8 µM (inactive)	59.4 µM (inactive)	37.3 µM (inactive)	47.6 µM (inactive)	62.1 µM (inactive)	29.2 µM (inactive)	16.3 µM (inactive)
CC(C)(C)N/N=C(\C(=O)Nc1cccc(Cl)c1)C1C(=O)Nc2ccccc2[S+]1[O-] (stereo unspecified)	> 100 µM (inactive)		> 100 µM (inactive)	> 100 µM (inactive)	> 100 µM (inactive)	> 100 µM (inactive)	> 100 µM	> 100 µM (inactive)	> 100 µM (inactive)	> 100 µM (inactive)	> 100 µM (inactive)	21.6 µM (inactive)	> 100 µM (inactive)	> 100 µM (inactive)	> 100 µM (inactive)	> 100 µM (inactive)	> 100 µM (inactive)	> 100 µM (inactive)	74.8 µM (inactive)
O=c1/c(=C/c2ccccc2[N+](=O)[O-])sc2nnc(-c3cccnc3)n12	> 100 µM (inactive)	> 100 µM (inactive)	> 100 µM (inactive)	> 100 µM (inactive)		> 100 µM (inactive)	> 100 µM	> 100 µM (inactive)	> 100 µM (inactive)	> 100 µM (inactive)	> 100 µM (inactive)	> 100 µM (inactive)	> 100 µM (inactive)	> 100 µM (inactive)		> 100 µM (inactive)		> 100 µM (inactive)	> 100 µM (inactive)
O=c1n(-c2ccccc2)c(=O)n2n1C1C=CC2C2C(C1)C2(Cl)Cl (stereo unspecified)	> 100 µM (inactive)	> 100 µM (inactive)	> 100 µM (inactive)	> 100 µM (inactive)	> 100 µM (inactive)	> 100 µM (inactive)	> 100 µM	> 100 µM (inactive)	> 100 µM (inactive)	> 100 µM (inactive)	> 100 µM (inactive)	> 100 µM (inactive)	> 100 µM (inactive)		> 100 µM (inactive)	> 100 µM (inactive)	> 100 µM (inactive)	> 100 µM (inactive)	
COc1ccc2ccc3c(c2c1)CN1CCc2cc(OC)c(OC)cc2C1C3 (stereo unspecified)	> 100 µM (inactive)			> 100 µM (inactive)	> 100 µM (inactive)	> 100 µM (inactive)	> 100 µM	> 100 µM (inactive)	> 100 µM (inactive)	> 100 µM (inactive)	> 100 µM (inactive)	> 100 µM (inactive)	> 100 µM (inactive)	> 100 µM (inactive)	> 100 µM (inactive)		> 100 µM (inactive)	> 100 µM (inactive)	> 100 µM (inactive)
